Reference: US8178091B2, “Compositions and methods for the treatment of respiratory disorders” (University of Washington, priority 2007, dated 2012)
Entries after “also recorded” stand apart in the source; their conditions may differ. Where two headings read alike, the source gives them in different places.

What was measured:
IGF-1R [1] = target: T1, IGF-1R (Homo sapiens, UniProt P08069); details: cited from earlier work
IGF-1R [2] = target: T1, IGF-1R; details: cited from earlier work; remark: listed apart in the source
[3] = oxidation; cited from earlier work
PDGFR = details: intact cells; cited from earlier work
[4] = test system: primary mouse lung fibroblasts; test: migration assay (FluoroBlok transwell); format: cell-based, C57BL6 mice
Method: Mouse lung fibroblasts were plated FluoroBlok transwell filters overnight, then IGF-1 (100 ng/ml), serum free media (negative control), 10% serum (positive control) was added to lower chamber. Some cells were preincubated with the blocking antibody to IGF-1R (A12, 40 μg/ml) before the addition of IGF-1. Cells were allowed to migrate through membrane for 4 hours @ 37° C. Migrated cells were counted with Fluorescent microscope. Each experiments was done in triplicate and repeated at least three times. Average cell count ±SD are presented.
For migration assays, primary mouse lung fibroblasts (50,000 cells/well) were plated in serum-free medium overnight on Fluoroblok transwell filters (8 μm pores, HTS FluoroBlok™ 24-Multiwell Insert System, BD Bioscience, Bedford, Mass.) pre-coated with fibronectin (50 μg/ml). Fluoroblok microporous membranes are specifically designed to detect by fluorescence only cells below the surface membrane. IGF-1 (100 ng/ml), 10% FBS (positive control) or serum-free media (negative control) was added to lower chamber. In some experiments, cells were preincubated with the blocking antibody to IGF-1R (A12, 40 μg/ml), for 1 hour. After 4 hours of migration, filters were fixed with formaldehyde and stained with DAPI (4′6-Diamidine-2′-phenylindole dihydrochloride, Roche, Indianapolis, Ind.). Migrated cells were counted in three predesignated fields for each filter. All experiments were done in triplicate and repeated at least three times.

IR [5] = target: IR (Homo sapiens, UniProt P06213); details: even at high concentrations; cited from earlier work
[6] = rats; cited from earlier work
IGF-1R [7] = target: T1, IGF-1R; details: cited from earlier work; remark: listed apart in the source
IGF-1R-positive tumors = details: mice; cited from earlier work
β-tubulin = details: interaction with β-tubulin, mitotic arrest; cited from earlier work
tumors = details: nude mice; cited from earlier work
IGF-1R [8] = target: T1, IGF-1R; details: cited from earlier work; remark: listed apart in the source
IR [9] = details: in vivo; cited from earlier work
[10] = test system: primary mouse lung fibroblasts; test: proliferation assay (MTT); format: cell-based, C57BL6 mice
Method: Mouse lung fibroblasts from saline-treated mice (A) or bleomycin-treated mice (B) were plated in triplicate and serum-starved overnight followed by addition of IGF-1 (100 ng/ml), serum-free media (negative control), 10% FBS (positive control), and then incubated for indicated time. Cell proliferation was measured by MTT assay. Data are shown as mean OD570 nm±SD and are average of at least 4 independent experiments.
For proliferation assays, primary mouse lung fibroblasts were plated at 10,000 cells/100 μl in 96-well plates. After initial adhesion, medium was changed to serum free overnight and then IGF-1 (100 ng/ml) was added. As a positive control, cells were grown in 10% FBS; as a negative control, cell were grown in serum-free media. Cell proliferation was assayed at 48, 72 or 96 hours by colorimetric methyl thiazolyl tetrazolium (MTT) assay per manufacturer's direction (Qiang et al., Blood 103:301-308 (2004)). Optical density of plates was read on a Spectra Max 250 (Molecular Device, Sunnyvale, Calif.) at 570 nm. All experiments were done in triplicate and repeated three times.

mouse lung fibroblasts = test: Western blot of signaling in IGF-stimulated lung fibroblasts; format: cell-based; details: IGF-1 100 ng/ml
Method: Tyrosine phosphorylation of receptor tyrosine kinase substrates was evaluated. Mouse lung fibroblasts were serum-starved overnight and then stimulated with IGF-1 (100 ng/ml) for indicated times. Cells were lysed, and proteins separated by SDS-PAGE. Each membrane was blotted with indicated phospho-antibody then stripped and reblotted with antibody to total protein. Substrates include IGF-1R, IRS-1 and IRS-2. The tyrosine phosphorylated forms of the substrates are indicated by pIGF-1R, pIRS-1 and pIRS-2, respectively.
Tyrosine phosphorylation of receptor tyrosine kinase substrates was evaluated. Substrates include AKT, ERK. The tyrosine phosphorylated forms of the substrates are indicated by pAKT, pERK, respectively.
For Western Blot analyses, cells were grown to 70% confluence, placed in serum free medium overnight and then IGF-1 (100 ng/ml) was added for 5, 10, 15, 30 and 60 minutes. At indicated time points, cells were washed in ice-cold PBS and lysed in buffer containing 100 mM Tri-HCl (pH 7.4), 150 mM NaCl, 1 mM CaCl2, 0.1% SDS, 1% Triton-X, 0.1% NP-40, 1 mM […] (sodium vanadate), 1 mM NaF (sodium Fluoride) and protease inhibitor cocktail tablet (Roche). Protein concentrations were determined by the BCA assay (Pierce). Equal amounts of protein were separated by sodium dodecyl sulfate-polyacrylamide gel electrophoresis (SDS-PAGE), and electrophoretically transferred to PVDF membrane. Membranes were blocked with 5% nonfat dry milk/0.05% Tween-20/PBS for 2 hours, incubated with primary antibody for 2 hours at room temperature, washed with 0.05% Tween-20/PBS, incubated with horseradish peroxidase-conjugated secondary antibody (1:5000) for 2 h, washed with 0.05% Tween-20/PBS and then developed with enhanced chemiluminescence (ECL) technique (Amersham, England).

[11] = test system: primary normal human lung fibroblasts; test: apoptosis assay (Cell Death Detection ELISA-plus), lung fibroblasts; format: cell-based; details: serum starvation, increasing concentrations
Method: (§1) A: Normal human lung fibroblast or distal lung epithelial cells were serum-starved overnight and then incubated with indicated concentration of IGF-1R antibody or IGFBP-3 overnight. B: A549 cells were serum-starved and incubated with IGF-1R antibody (136 μg/ml) with or without the indicated concentration of Fas ligand. Apoptosis was measured by Cell Death ELISA-plus ELISA (Roche Applied Science) per the manufacturer's directions. All experiments were done in triplicate and repeated at least twice. Apoptosis index is defined as the ratio of experimental condition OD405 nm: control (media alone) OD405 nm.
(§2) Primary normal human lung fibroblasts (Clonetics, Cambrex Bioscience, Rockland, Me.), primary distal lung human epithelial cells (Clonetics) or A549 (American Type Culture Collection, Manassas, Va.) were seeded in a 96-well tissue culture plate (2×10^4 cells/well) overnight and serum-starved for 24 hours. […] After 48 hours, apoptosis was measured. To prevent detached cells from being aspirated, plates were centrifuged at 200×g for 10 minutes, and apoptosis was measured using the Cell Death Detection ELISA-plus System (Roche Applied Science, Penzberg, Germany), which detects cytosolic histone-complexed DNA fragments. […]

[12] = test system: primary distal lung human epithelial cells; test: apoptosis assay (Cell Death Detection ELISA-plus), lung epithelial cells; format: cell-based; details: serum starvation, increasing concentrations
Method: as §1, §2

human IGF-1R mRNA = details: cited from earlier work

T1 sequence (P08069 31-1367, species assumed): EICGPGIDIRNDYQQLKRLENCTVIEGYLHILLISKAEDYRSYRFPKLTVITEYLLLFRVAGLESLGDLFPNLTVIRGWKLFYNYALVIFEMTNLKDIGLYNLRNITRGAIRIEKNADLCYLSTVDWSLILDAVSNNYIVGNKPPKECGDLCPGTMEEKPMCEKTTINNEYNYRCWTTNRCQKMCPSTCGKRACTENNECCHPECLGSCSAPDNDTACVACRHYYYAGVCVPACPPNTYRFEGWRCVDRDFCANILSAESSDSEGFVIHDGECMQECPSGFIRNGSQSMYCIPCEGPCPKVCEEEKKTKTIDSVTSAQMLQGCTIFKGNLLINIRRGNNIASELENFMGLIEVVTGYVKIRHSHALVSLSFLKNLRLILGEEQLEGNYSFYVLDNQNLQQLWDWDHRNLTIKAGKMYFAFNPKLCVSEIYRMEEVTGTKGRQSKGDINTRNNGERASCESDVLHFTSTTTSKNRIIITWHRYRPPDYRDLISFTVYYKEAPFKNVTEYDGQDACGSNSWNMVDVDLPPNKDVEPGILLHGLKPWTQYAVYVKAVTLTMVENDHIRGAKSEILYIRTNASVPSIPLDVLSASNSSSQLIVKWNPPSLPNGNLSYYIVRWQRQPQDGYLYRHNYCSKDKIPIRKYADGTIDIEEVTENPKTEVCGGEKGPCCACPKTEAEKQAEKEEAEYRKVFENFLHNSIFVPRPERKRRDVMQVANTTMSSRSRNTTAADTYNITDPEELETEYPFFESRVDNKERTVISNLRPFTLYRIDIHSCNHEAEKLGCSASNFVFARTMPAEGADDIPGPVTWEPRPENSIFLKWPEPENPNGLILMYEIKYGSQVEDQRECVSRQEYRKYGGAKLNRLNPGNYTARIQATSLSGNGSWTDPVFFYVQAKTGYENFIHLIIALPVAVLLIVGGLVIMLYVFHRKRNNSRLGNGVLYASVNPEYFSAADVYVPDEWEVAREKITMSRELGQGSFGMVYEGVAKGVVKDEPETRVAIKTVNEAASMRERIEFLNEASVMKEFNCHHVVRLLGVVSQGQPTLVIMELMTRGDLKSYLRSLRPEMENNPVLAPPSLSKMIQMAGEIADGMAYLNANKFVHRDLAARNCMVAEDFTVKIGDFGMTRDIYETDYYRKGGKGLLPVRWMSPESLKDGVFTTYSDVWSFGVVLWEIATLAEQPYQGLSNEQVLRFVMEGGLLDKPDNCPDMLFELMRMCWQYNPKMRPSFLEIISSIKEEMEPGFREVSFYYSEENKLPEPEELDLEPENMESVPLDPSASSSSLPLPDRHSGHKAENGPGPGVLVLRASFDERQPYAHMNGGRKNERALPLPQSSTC
Sequence of IR (Homo sapiens, UniProt P06213) (P06213 28-1382): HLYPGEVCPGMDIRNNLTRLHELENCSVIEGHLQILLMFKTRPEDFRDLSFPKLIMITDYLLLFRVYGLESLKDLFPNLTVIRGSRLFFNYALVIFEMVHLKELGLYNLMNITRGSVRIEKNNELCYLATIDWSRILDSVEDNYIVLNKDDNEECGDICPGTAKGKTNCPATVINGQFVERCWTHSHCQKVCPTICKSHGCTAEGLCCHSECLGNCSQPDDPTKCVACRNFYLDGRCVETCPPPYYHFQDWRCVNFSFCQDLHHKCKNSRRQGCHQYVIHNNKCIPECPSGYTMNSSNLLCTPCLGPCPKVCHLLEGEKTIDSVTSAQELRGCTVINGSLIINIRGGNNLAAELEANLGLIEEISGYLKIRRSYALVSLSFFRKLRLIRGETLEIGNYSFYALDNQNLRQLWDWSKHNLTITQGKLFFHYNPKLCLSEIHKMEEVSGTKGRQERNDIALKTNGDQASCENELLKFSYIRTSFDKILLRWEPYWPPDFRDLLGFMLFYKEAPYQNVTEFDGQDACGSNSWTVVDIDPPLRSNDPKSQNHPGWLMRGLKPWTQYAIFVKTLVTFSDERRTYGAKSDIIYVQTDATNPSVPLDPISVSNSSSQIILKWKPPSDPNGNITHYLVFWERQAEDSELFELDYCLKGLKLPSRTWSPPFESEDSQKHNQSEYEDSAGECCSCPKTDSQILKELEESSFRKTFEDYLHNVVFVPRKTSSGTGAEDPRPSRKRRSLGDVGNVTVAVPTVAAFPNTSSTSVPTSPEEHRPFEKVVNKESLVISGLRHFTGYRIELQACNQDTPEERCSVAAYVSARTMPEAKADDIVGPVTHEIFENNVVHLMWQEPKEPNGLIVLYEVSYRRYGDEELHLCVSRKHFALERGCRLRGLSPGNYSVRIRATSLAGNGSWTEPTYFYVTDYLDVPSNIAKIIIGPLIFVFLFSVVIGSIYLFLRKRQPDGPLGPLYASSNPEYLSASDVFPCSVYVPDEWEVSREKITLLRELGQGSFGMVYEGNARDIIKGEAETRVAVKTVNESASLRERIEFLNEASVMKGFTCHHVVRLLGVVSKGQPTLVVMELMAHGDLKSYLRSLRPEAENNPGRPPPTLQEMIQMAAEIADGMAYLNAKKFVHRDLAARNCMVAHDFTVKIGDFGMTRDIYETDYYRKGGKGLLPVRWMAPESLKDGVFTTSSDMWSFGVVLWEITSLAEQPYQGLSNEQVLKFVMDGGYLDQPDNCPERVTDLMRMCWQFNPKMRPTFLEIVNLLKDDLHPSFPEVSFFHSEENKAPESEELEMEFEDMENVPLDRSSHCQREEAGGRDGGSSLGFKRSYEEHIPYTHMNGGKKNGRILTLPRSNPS

Molecule: N#C/C(=C\c1ccc(O)c(O)c1)C(=O)c1ccc(O)c(O)c1 [AG 538]
- IC50 (IGF-1R [1]; cell free kinase assay, read-out: IC50 inhibition of IGF-1R): 0.061 µM
- receptor autophosphorylation and activation of downstream targets PKB and Erk2 (IGF-1R [2]; cultured cells): inhibits receptor autophosphorylation
- stability of catechol moiety [3]: unstable due to its vulnerability to oxidation

Molecule: N#C/C(=C\c1ccc2oc(=O)[nH]c2c1)C(=O)c1ccc(O)c(O)c1 [AGL 2263]
- activity relative to parent compound AG 538 in cell free assays (IGF-1R [1]; cell free assays): somewhat less active
- PKB activation by PDGFR (PDGFR): did not affect
- activity relative to parent compound AG 538 in cell culture assays (IGF-1R [2]; cell culture assays): comparable to the parent compound
- IC50 (IGF-1R [2]; intact cells, read-out: IC50 inhibiting the activation of PKB in intact cells): 6 µM

Molecule: COc1cccc(-c2cc(=O)c3ccccc3o2)c1N [PD98059, reference compound]
- effect on IGF-1-induced migration ([4]; IGF-1 100 ng/ml, A12 40 μg/ml preincubation): partially inhibited

Molecule: COc1cc([C@@H]2c3cc4c(cc3[C@H](O)[C@H]3COC(=O)[C@@H]23)OCO4)cc(OC)c1OC [PPP, picropodophyllin]
- effect on IR activity (IR [5]): did not affect IR activity
- LD50 [6]: > 500 mg/kg
- IC50 on IGF-1R activity (IGF-1R [7]): sub-micromolar
- killing IGF-1R-positive tumors (IGF-1R-positive tumors): effective at killing IGF-1R-positive tumors

Molecule: COc1cc([C@@H]2c3cc4c(cc3[C@H](O)[C@H]3COC(=O)[C@H]23)OCO4)cc(OC)c1OC [PPT, podophyllotoxin]
- effect on IR activity (IR [5]): did not affect IR activity
- cytotoxicity (β-tubulin): cytotoxic
- IC50 on IGF-1R activity (IGF-1R [7]): sub-micromolar

Molecule: COc1ccc(Cl)cc1NC(=O)Nc1cc(C)nc2ccccc12 [PQ401]
- growth rate of tumors (tumors): reduce the growth rate of tumors

Molecule: CN1CCN([C@H]2C[C@@H](c3nc(-c4ccc5ccc(-c6ccccc6)nc5c4)c4c(N)nccn43)C2)CC1 [cis-3-[3-(4-methyl-piperazin-1-yl)-cyclobutyl]-1-(2-phenyl-quinolin-7-yl)-imidazo[1,5-a]pyrazin-8-ylamine]
- IGF-1R activity in vivo (IGF-1R [8]): inhibit IGF-1R activity in vivo
- rise in blood sugar (IR [9]): without causing any substantial rise in blood sugar

Molecule: IGF-1: insulin-like growth factor 1, purchased from R&D Systems
- proliferation of normal mouse lung fibroblasts ([10]; IGF-1 50 or 100 ng/ml, serum-free, up to 96 h): did not increase proliferation; also recorded: increased proliferation was not observed
- proliferation of activated fibroblasts derived from bleomycin-treated mice ([10]; data not shown): can induce proliferation
- increase in migration ([4]; IGF-1 100 ng/ml, FIG. 4): 1.8 fold
- migration of MLF in response to IGF-1 ([4]; transwell filter, 4 hours, FIG. 5): increased migration
- Akt phosphorylation (mouse lung fibroblasts): phosphorylated in response to IGF-1 stimulation by 15 minutes and persisted until 60 minutes
- ERK phosphorylation (mouse lung fibroblasts): did not undergo phosphorylation
- IRS-1 phosphorylation (mouse lung fibroblasts): did not change
- IRS-2 phosphorylation (mouse lung fibroblasts): increased phosphorylation by 10 minutes that persisted until 30 minutes
- time to IGF-1R phosphorylation (mouse lung fibroblasts): ≤ 10 min

Molecule: IGFBP-3: insulin-like growth factor-binding protein-3 (R&D Systems)
- apoptosis of primary human lung fibroblasts [11]: increased apoptosis was not observed
- apoptosis of primary lung epithelial cells [12]: increased apoptosis was not observed

Molecule: siRNA 1: 5'-GGGACCCUCCUCCGGAGCCAG-3' (antisense; SEQ ID NO: 1) and 5'-GGCUCCGGAGGAGGGUCCCCG-3' (sense; SEQ ID NO: 2) (listed as RNA, chemistry not given here)
- targeting of human IGF-1R mRNA (human IGF-1R mRNA): effective to target human IGF-1R mRNA

Molecule: siRNA 2: 5'-GGUCUUCUCACACAUCGGCUU-3' (antisense; SEQ ID NO: 3) and 5'-GCCGAUGUGUGAGAAGACCUU-3' (sense; SEQ ID NO: 4) (listed as RNA, chemistry not given here)
- targeting of human IGF-1R mRNA (human IGF-1R mRNA): effective to target human IGF-1R mRNA
